Source: paper PMC4556614 (PLoS ONE, 2015)
Where two headings read alike, the source gives them in different places.

Experiments:
OCT2 [1] = biological target: T1, OCT2 (Homo sapiens, UniProt O15244); assay: in vitro; conditions: for inhibition at 3 min, 20 µM / inhibition at 3 min, 200 µM: pH 7.3, probe [14C]metformin, 1000 µM, metformin 1000 μM, net uptake HEK-OCT2 minus HEK-VC; for inhibition at 3 min, 20 µM: % Inhibition of OCT2-dependent MF uptake at 20 µM (mean ± SEM), test drug 20 µM; for inhibition at 3 min, 200 µM: % Inhibition of OCT2-dependent MF uptake at 200 µM (mean ± SEM), test drug 200 µM
T1 sequence (O15244 whole entry): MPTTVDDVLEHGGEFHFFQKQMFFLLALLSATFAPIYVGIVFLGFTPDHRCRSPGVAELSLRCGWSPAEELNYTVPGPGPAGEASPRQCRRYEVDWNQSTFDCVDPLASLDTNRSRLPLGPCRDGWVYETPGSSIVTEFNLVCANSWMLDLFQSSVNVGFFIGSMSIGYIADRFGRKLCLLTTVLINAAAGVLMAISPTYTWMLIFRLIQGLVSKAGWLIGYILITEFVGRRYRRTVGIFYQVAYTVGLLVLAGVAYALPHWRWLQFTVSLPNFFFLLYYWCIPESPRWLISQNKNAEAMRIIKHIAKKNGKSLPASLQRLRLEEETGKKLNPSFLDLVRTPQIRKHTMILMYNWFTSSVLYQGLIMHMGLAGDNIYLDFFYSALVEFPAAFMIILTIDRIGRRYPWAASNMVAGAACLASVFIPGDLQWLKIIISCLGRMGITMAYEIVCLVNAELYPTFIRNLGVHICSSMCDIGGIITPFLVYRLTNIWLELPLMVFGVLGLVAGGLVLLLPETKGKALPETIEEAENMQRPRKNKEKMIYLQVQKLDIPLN
Experimental: (§1) For the transport assays HEK cell lines stably transfected with human OCT2 (HEK-OCT2) or the vector only (HEK-VC) were used. The HEK-OCT2 cell line was established and characterized previously. HEK-OCT2 and HEK-VC cells were seeded in poly-D-lysine (Sigma Aldrich, Taufkirchen, Germany) coated 48-well-plates at a density of 1.2 x 10^5 cells/well. […] Uptake was stopped by washing the cells three times with ice-cold uptake buffer. Afterwards, cells were lysed with 5 mM Tris buffer (pH 7.3) containing 0.1% Triton X-100. The intracellular accumulation of radioactivity was determined by liquid scintillation counting (PerkinElmer, Rodgau-Jügesheim, Germany) and protein concentration of each lysate was measured with bicinchonic acid assay (BCA Protein Assay Kit, Thermo Fisher Scientific, Waltham, MA, USA). We performed two to eight experiments each on at least two separate days, i.e., n = 4–16.
Experimental half-maximal inhibitory concentrations (IC50 values) were measured as the substrate uptake in the presence of increasing concentrations of test drugs. These experiments were performed as described above (three experiments each on two separate days, i.e., n = 6). IC50 values were calculated with GraphPad Prism 5.0 (GraphPad Software, San Diego, CA, USA). IC50 was estimated by a sigmoidal inhibition model and was fit to the equation V = V 0 / (1 + (I / IC50 ) ^n ) by nonlinear regression. V is the net uptake in the presence of the inhibitor, V 0 is the net uptake in the absence of the inhibitor, I is the concentration of the inhibitor and n is the slope.

OCT2 [2] = biological target: T1, OCT2; assay: Inhibition of OCT2-mediated [3H]MPP+ uptake in HEK-OCT2 cells; conditions: for inhibition at 3 min, 20 µM / inhibition at 3 min, 200 µM: pH 7.3, probe [3H]MPP+, 50 µM
Experimental: as §1

[3] = test drug 20 µM, MPP+ 50 μM, 3 min, net uptake HEK-OCT2 minus HEK-VC
[4] = test drug 200 µM, MPP+ 50 μM, 3 min, net uptake HEK-OCT2 minus HEK-VC

Row | SMILES | % Inhibition of OCT2-dependent MPP+ uptake at 20 µM (mean ± SEM) (OCT2 [2]; [3]) [%] | % Inhibition of OCT2-dependent MPP+ uptake at 200 µM (mean ± SEM) (OCT2 [2]; [4]) [%] | % Inhibition of OCT2-dependent MF uptake at 20 µM (mean ± SEM) (OCT2 [1]; human, pH 7.3) | % Inhibition of OCT2-dependent MF uptake at 200 µM (mean ± SEM) (OCT2 [1]; human, pH 7.3) | further results
1 | Cl.Cl.OCCN1CCN(CCC=C2c3ccccc3Sc3ccc(C(F)(F)F)cc32)CC1 (mixture of isomers) [Flupentixol] | 22.9 ± 7.5 | 107.8 ± 5.0 | – | – | % Inhibition of OCT2-dependent MF uptake at 20 µM (mean ± SEM) (OCT2 [1]): 75.0 ± 7.9; % Inhibition of OCT2-dependent MF uptake at 200 µM (mean ± SEM) (OCT2 [1]): 96.1 ± 2.1
2 | N[C@@H]1C[C@H]1c1ccccc1 (racemic) [Tranylcypromine] | – | – | – | – | % Inhibition of OCT2-dependent MF uptake at 20 µM (mean ± SEM) (OCT2 [1]): 39.0 ± 3.3; % Inhibition of OCT2-dependent MF uptake at 200 µM (mean ± SEM) (OCT2 [1]): 79.1 ± 2.9; % Inhibition of OCT2-dependent MPP+ uptake at 20 µM (mean ± SEM) (OCT2 [2]): 27.8 ± 5.6; % Inhibition of OCT2-dependent MPP+ uptake at 200 µM (mean ± SEM) (OCT2 [2]): 54.7 ± 3.1
3 | CC(=O)Oc1ccccc1C(=O)O [ASA, acetylsalicylic acid] | -10.6 ± 5.7 | -1.5 ± 4.5 | -18.7 ± 11.0% | 1.3 ± 8.9% | –
4 | CC(=O)NCCCS(=O)(=O)O [Acamprosate] | -8.1 ± 4.4 | -7.7 ± 5.2 | 2.7 ± 4.8% | 0.9 ± 5.8% | –
5 | CC(=O)N[C@@H](CS)C(=O)O [Acetylcysteine] | -35.6 ± 7.7 | -36.0 ± 3.2 | 13.2 ± 6.3% | 11.0 ± 9.4% | –
6 | COc1ccc2cccc(CCNC(C)=O)c2c1 [Agomelatine] | – | – | – | – | inhibition at 3 min, 20 µM (OCT2 [1]; human): 71.3 ± 2.6%; inhibition at 3 min, 200 µM (OCT2 [1]; human): 95.5 ± 1.8%; inhibition at 3 min, 20 µM (OCT2 [2]; human): -10.3 ± 2.7%; inhibition at 3 min, 200 µM (OCT2 [2]; human): 39.9 ± 3.5%
7 | Oc1ncnc2[nH]ncc12 [Allopurinol] | – | – | – | – | inhibition at 3 min, 20 µM (OCT2 [1]; human): 24.8 ± 6.9%; inhibition at 3 min, 200 µM (OCT2 [1]; human): 26.8 ± 3.9%; inhibition at 3 min, 20 µM (OCT2 [2]; human): 35.6 ± 7.5%; inhibition at 3 min, 200 µM (OCT2 [2]; human): 52.7 ± 8.8%
8 | CCN1CCCC1CNC(=O)c1cc(S(=O)(=O)CC)c(N)cc1OC (stereo not shown) [Amisulpride] | – | – | – | – | inhibition at 3 min, 20 µM (OCT2 [1]; human): 52 ± 2.1%; inhibition at 3 min, 200 µM (OCT2 [1]; human): 91.7 ± 0.7%; inhibition at 3 min, 20 µM (OCT2 [2]; human): 25.5 ± 7%; inhibition at 3 min, 200 µM (OCT2 [2]; human): 51.3 ± 6.7%
9 | CCOC(=O)C1=C(COCCN)NC(C)=C(C(=O)OC)C1c1ccccc1Cl (stereo not shown) [Amlodipine] | -13.8 ± 7.4 | 39.3 ± 6.8 | 21.9 ± 9.0% | 110.0 ± 17.3% | –
10 | CC1(C)S[C@@H]2[C@H](NC(=O)[C@H](N)c3ccc(O)cc3)C(=O)N2[C@H]1C(=O)O [Amoxicillin] | -21.0 ± 11.1 | -13.5 ± 14.5 | 3.2 ± 6.6% | 4.5 ± 5.1% | –
11 | O=C1CCc2ccc(OCCCCN3CCN(c4cccc(Cl)c4Cl)CC3)cc2N1 [Aripiprazole] | 6.7 ± 3.6 | 16.9 ± 5.2 | 53.4 ± 9.1% | 82.0 ± 6.7% | –
12 | O=C(CCCN1CCC(n2c(O)nc3ccccc32)CC1)c1ccc(F)cc1 [Benperidol] | -21.5 ± 2.8 | 1.6 ± 8.3 | 58.7 ± 3.3% | 72.2 ± 2.7% | –
13 | CC(C)NCC(O)COc1ccc(COCCOC(C)C)cc1 (stereo not shown) [Bisoprolol] | -16.1 ± 2.2 | 11.8 ± 5.5 | 57.2 ± 4.0% | 75.8 ± 4.5% | –
14 | O=C1CN=C(c2ccccn2)c2cc(Br)ccc2N1 [Bromazepam] | – | – | 27.6 ± 2.6% | 77.9 ± 1.4% | % Inhibition of OCT2-dependent MPP+ uptake at 20 µM (mean ± SEM) (OCT2 [2]; human, pH 7.3): -16.3 ± 9.0%; % Inhibition of OCT2-dependent MPP+ uptake at 200 µM (mean ± SEM) (OCT2 [2]; human, pH 7.3): 14.7 ± 8.3%
15 | CCOc1nc2cccc(C(=O)O)c2n1Cc1ccc(-c2ccccc2-c2nnn[nH]2)cc1 [Candesartan] | – | – | – | – | inhibition at 3 min, 20 µM (OCT2 [1]; human): 48 ± 3.7%; inhibition at 3 min, 200 µM (OCT2 [1]; human): 69.7 ± 2.7%; inhibition at 3 min, 20 µM (OCT2 [2]; human): 0.9 ± 0.1%; inhibition at 3 min, 200 µM (OCT2 [2]; human): -2.4 ± 4%
16 | C[C@H](CS)C(=O)N1CCC[C@H]1C(=O)O [Captopril] | 3.8 ± 5.7 | 10.2 ± 6.8 | -21.6 ± 19.5% | -59.0 ± 0.9% | –
17 | NC(=O)N1c2ccccc2C=Cc2ccccc21 [Carbamazepine] | -51.4 ± 9.2 | -2.1 ± 4.4 | 0.2 ± 3.8% | 83.8 ± 1.2% | –
18 | COc1ccccc1OCCNCC(O)COc1cccc2[nH]c3ccccc3c12 (stereo not shown) [Carvedilol] | 32.2 ± 3.7 | 88.5 ± 1.5 | 84.3 ± 5.2% | 98.6 ± 0.5% | –
19 | CO/N=C(\C(=O)N[C@@H]1C(=O)N2C(C(=O)O)=C(COC(N)=O)CS[C@H]12)c1ccco1 [Cefuroxime] | -10.5 ± 7.0 | -30.8 ± 12.9 | 29.9 ± 9.7% | 50.3 ± 11.6% | –
20 | CN(C)CC/C=C1/c2ccccc2Sc2ccc(Cl)cc21 [Chlorprothixene] | 29.9 ± 7.5 | 91.7 ± 2.2 | 66.8 ± 7.9% | 98.4 ± 0.9% | –
21 | C=C1CC[C@H](O)C/C1=C/C=C1\CCC[C@]2(C)[C@@H]([C@H](C)CCCC(C)C)CC[C@@H]12 [Cholecalciferol] | 6.8 ± 5.1 | 10.4 ± 6.1 | 2.8 ± 15.7 | 17.1 ± 5.0 | –
22 | CN(C)CCCC1(c2ccc(F)cc2)OCc2cc(C#N)ccc21 (stereo not shown) [Citalopram] | 40.0 ± 9.9 | 75.2 ± 9.7 | 66.6 ± 7.9 | 78.9 ± 8.4 | –
23 | Cc1ncsc1CCCl [Clomethiazole] | -6.7 ± 9.2 | -147.3 ± 23.7 | -9.2 ± 6.8 | 28.7 ± 3.9 | –
24 | COC(=O)[C@H](c1ccccc1Cl)N1CCc2sccc2C1 [Clopidogrel] | – | – | 70.0 ± 2.0 | 92.8 ± 5.4 | % Inhibition of OCT2-dependent MPP+ uptake at 20 µM (mean ± SEM) (OCT2 [2]; human, pH 7.3): 12.5 ± 0.8; % Inhibition of OCT2-dependent MPP+ uptake at 200 µM (mean ± SEM) (OCT2 [2]; human, pH 7.3): 41.5 ± 4.0
25 | CN1CCN(C2=Nc3cc(Cl)ccc3Nc3ccccc32)CC1 [Clozapine] | 43.4 ± 4.7 | 84.1 ± 2.5 | 71.4 ± 1.6 | 98.7 ± 0.7 | –
26 | O=C(O)Cc1ccccc1Nc1c(Cl)cccc1Cl [Diclofenac] | 8.8 ± 8.9 | 24.0 ± 4.0 | 14.3 ± 8.8 | 59.1 ± 6.5 | –
27 | C[C@H]1O[C@@H](O[C@H]2[C@@H](O)C[C@H](O[C@H]3[C@@H](O)C[C@H](O[C@H]4CC[C@@]5(C)[C@H](CC[C@@H]6[C@@H]5CC[C@]5(C)[C@@H](C7=CC(=O)OC7)CC[C@]65O)C4)O[C@@H]3C)O[C@@H]2C)C[C@H](O)[C@@H]1O [Digitoxin] | -32.6 ± 3.8 | -32.4 ± 8.5 | 28.7 ± 7.9 | 32.8 ± 2.9 | –
28 | COc1cc2nc(N3CCN(C(=O)C4COc5ccccc5O4)CC3)nc(N)c2cc1OC (stereo not shown) [Doxazosin] | 26.7 ± 10.3 | 45.8 ± 14.0 | 48.0 ± 5.5 | 92.1 ± 1.0 | –
